Experimental data as given in PubChem BioAssay AID623861 (Sanford-Burnham Center for Chemical Genomics, 2012).
Activity calls are given as the source filed them.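 The calls were made as follows: active = compounds whose EC50 for boosting single-cell stem cell survival is at or below a set limit; inactive = the rest.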

Test system: human iPSC single-cell survival, ATP luminescence
Experiment: human iPSC survival promotion after dissociation – cell-based, luminescence, dose response (AID 623861)

| Compound | EC50 |
| --- | --- |
| OC(c1ccc(Cl)cc1)c1ncc(-c2cccc(C(F)(F)F)c2)[nH]1 (centres undefined) | > 80 µM (inactive) |
| Cc1ccsc1C(=O)OCC(=O)Nc1sccc1C(N)=O | > 80 µM (inactive) |
| Cn1cnnc1SCC(=O)c1ccc2c(c1)OCO2 | > 80 µM (inactive) |
| C=C1C(C)C2C(Cc3ccccc3)NC(=O)C23OC(=O)/C=C/C(O)CCCC(C)C/C=C/C3C1O (centres undefined) | 11.5 µM |
| CNc1nc(Cl)nc(NC(C)(C)C)n1 | > 80 µM (inactive) |
| CCCn1c(SCc2ccccc2)nc2c1c(=O)[nH]c(=O)n2C | > 80 µM (inactive) |
| CC(OC(=O)c1ccc(S(C)(=O)=O)c([N+](=O)[O-])c1)C(=O)NC1C2CC3CC(C2)CC1C3 (centres undefined) | > 80 µM (inactive) |
| CC(=O)c1ccccc1NC(=O)COC(=O)CCCN1C(=O)c2cccc3cccc(c23)C1=O | > 80 µM (inactive) |
| CCCSc1nc(N2CCOCC2)c2c(c1C#N)CC(C)(C)SC2 | 25.6 µM (inactive) |
| CCCCCCn1c(SCCN2CCOCC2)nc2c1c(=O)[nH]c(=O)n2C | > 80 µM (inactive) |
| Cc1ccc(S(=O)(=O)N[C@H](C(=O)OCC(=O)NC(=O)NCc2ccco2)C(C)C)cc1 | > 80 µM (inactive) |
| O=C(COC(=O)c1ccccc1C(=O)c1ccc(Cl)c([N+](=O)[O-])c1)NC1CC1 | > 80 µM (inactive) |
| CC1C/C(=C/c2ccncc2)C(=O)/C(=C/c2ccncc2)C1 (centres undefined) | 12.9 µM |
| CN1C/C(=C/c2cccnc2)C(=O)/C(=C/c2cccnc2)C1 | 13.7 µM |
| CC(OC(=O)c1ccc2c(=O)n3c(nc2c1)CCC3)C(=O)Nc1ccc(C(N)=O)cc1 (centres undefined) | 55.6 µM (inactive) |
| COc1ccc(C2=CC(=O)C[C@H](c3ccc(OC)c(OC)c3)C2)cn1 | > 80 µM (inactive) |
| CS(=O)(=O)N(Cc1cc2ccccc2[nH]c1=O)C1CCCCC1 | > 80 µM (inactive) |
| C1CCN(c2nc3nonc3nc2N2CCCC2)C1 | > 80 µM (inactive) |
| Cc1ccc2c(COC(=O)C3=COCCO3)cc(=O)oc2c1 | > 80 µM (inactive) |
| CCCOC(=O)Oc1ccc2c(=O)c(Oc3cc(C)cc(C)c3)coc2c1 | > 80 µM (inactive) |
| O=C1NCCN1c1ccccc1 | > 80 µM (inactive) |
| O=C(NCCCN1CCCCCC1)C1CC(=O)N(CCc2ccccc2)C1 (centres undefined) | > 80 µM (inactive) |
| O=c1c(Cl)c(Cl)cnn1Cc1nnc(-c2ccccc2Br)o1 | 8.37 µM |
| CNc1cc(Cl)c2nonc2c1[N+](=O)[O-] | 12.9 µM |
| COC(=O)C1=C(C)N(C)C(C)=C(C(=O)OC)C1c1cccc(Br)c1 | > 80 µM (inactive) |

| Compound | EC50 |
| --- | --- |
| COc1ccc2c(c1)c1ccc3c(c1n2C)C(=O)C=CC3=O | > 80 µM (inactive) |
| O=C(Nc1ccncc1)c1c(F)cccc1F | 3.27 µM |
| O=C(CNC(=O)c1ccccc1)OC(C(=O)Nc1cc(C(F)(F)F)ccc1Cl)c1ccccc1 (centres undefined) | > 80 µM (inactive) |
| NC(=O)c1ccc(NC(=O)CCC(=O)c2cccs2)cc1 | 9.86 µM |
| C=C1[C@@H](C)[C@H]2[C@H](Cc3ccccc3)NC(=O)[C@]23OC(=O)/C=C/[C@H](O)CCC[C@@H](C)C/C=C/[C@H]3[C@@H]1O | 21.7 µM (inactive) |
| Cc1c(Nc2cc(Cl)c3nonc3c2[N+](=O)[O-])c(=O)n(-c2ccccc2)n1C | > 80 µM (inactive) |
| CCCCn1c(=O)[nH]c(=O)c2c1nc(Cn1ncc(Cl)c(Cl)c1=O)n2CCC | 5.62 µM |
| C[C@@H]1CCCCO[C@@H](CN(C)S(=O)(=O)c2cccs2)[C@@H](C)CN([C@H](C)CO)C(=O)c2cc(NS(=O)(=O)c3ccccc3)ccc2O1 | > 80 µM (inactive) |
| CC(OC(=O)c1cccc(S(=O)(=O)N2CCN(C)CC2)c1)C(=O)Nc1ccc(C(N)=O)cc1 (centres undefined) | 30.6 µM (inactive) |
| Cc1c(C(=O)NCc2ccccc2C(F)(F)F)sc(=O)n1Cc1ccc2ccccc2c1 | > 80 µM (inactive) |
| Cn1c(Cl)c(/C=N/OC(=O)c2ccc(Cl)cc2)c2ccccc21 | > 80 µM (inactive) |
| Cc1ccc(CN2CCN(Cc3cn(C)nc3C)CC2CCO)o1 (centres undefined) | > 80 µM (inactive) |
| CN(C(=O)COC(=O)c1nc(Cl)c(Cl)c(Cl)c1Cl)C1CCS(=O)(=O)C1 (centres undefined) | 31.1 µM (inactive) |
| CCSc1cnn(-c2ccccc2)c(=O)c1Cl | > 80 µM (inactive) |
| CC1(C)Cc2c(C#N)c(SCC(=O)c3ccccc3)nc(N3CCOCC3)c2CS1 | 13.4 µM |
| O=C(Nc1ccncc1)c1c(F)c(F)c(F)c(F)c1F | 5.93 µM |
| CN(C)c1ccc(-c2ccnc3c2CC(C)(C(=O)Nc2ccc(Cl)c(C(F)(F)F)c2)O3)cc1 (centres undefined) | > 80 µM (inactive) |
| COC(=O)c1ccc(C(=O)OC)c(NC(=O)CSc2cccc[n+]2[O-])c1 | > 80 µM (inactive) |
| CN(Cc1ccc(C(F)(F)F)cc1)C(=O)[C@H]1O[C@@H](n2cnc3c(N)ncnc32)[C@H](O)[C@@H]1O | 26.1 µM (inactive) |
| Cc1cc(C)c2nc(N3CCN(C)CC3)c(C#N)cc2c1 | > 80 µM (inactive) |
| O=C1/C(=C/c2ccncc2)CCC/C1=C\c1ccncc1 | 10.1 µM |
| O=S(=O)(c1cccc2cnccc12)N1CCNCC1 | 2.89 µM |
| CCOC1=C2[C@H](c3ccc(C)cc3)N(S(=O)(=O)c3ccc(C)cc3)C[C@H]2n2c(=O)n(-c3ccccc3)c(=O)n2C1 | > 80 µM (inactive) |
| COc1ccc(CC(=O)N2N=C(c3ccncc3)CC2(O)C(F)(F)F)cc1 (centres undefined) | > 80 µM (inactive) |
| C=C1C(C)C2C(Cc3ccccc3)NC(=O)C23C(OC(C)=O)C=CC(C)(O)CC(C)CC=CC3C1O (centres undefined) | 0.448 µM |

| Compound | EC50 |
| --- | --- |
| Cc1ccc([C@@H]2C[C@H]3[C@@H](CN2S(=O)(=O)c2ccc(Cl)cc2)C(=O)C[C@@H](c2ccc(C)cc2)N3S(=O)(=O)c2ccc(Cl)cc2)cc1 | > 80 µM (inactive) |
| CCCOC(=O)C1NC(=O)N2C(C(=O)OCCC)C(C)(C)S[C@H]12 (some centres undefined) | > 80 µM (inactive) |
| CCC(OC(=O)c1ccc(S(C)(=O)=O)c([N+](=O)[O-])c1)C(=O)NC1C2CC3CC(C2)CC1C3 (centres undefined) | > 80 µM (inactive) |
| CCOC(=O)c1c(-c2cc(OC)c(OC)c(OC)c2)csc1N | > 80 µM (inactive) |
| O=C(O)c1cc(C(=O)C2CC2)c[nH]1 | > 80 µM (inactive) |
| CC(C)C12CN3CC(C(C)C)(CN(C1)C3c1ccccc1O)C2=O (centres undefined) | > 80 µM (inactive) |
| O=C(Nc1ccncc1)c1cc(S(=O)(=O)N2CCOCC2)ccc1Cl | 20.4 µM (inactive) |
| O=C1CCC2(C(=O)O)Sc3ccccc3N12 (centres undefined) | > 80 µM (inactive) |
| CCN1C/C(=C/c2cccc([N+](=O)[O-])c2)C(=O)/C(=C/c2cccc([N+](=O)[O-])c2)C1 | 9.01 µM |
| O=c1cc(-c2ccccc2)nc2nc(SCc3ccccc3)[nH]n12 | > 80 µM (inactive) |
| O=C(NCc1ccccc1)c1ccc(-c2cn[nH]c2)c2ccoc12 | 1.22 µM |
| O=C(C(O)c1ccc(Br)cc1)N1CCC(Nc2ccc3[nH]ncc3c2)CC1 (centres undefined) | 6.68 µM |
| Cc1c(C(=O)OCC(=O)Nc2ccc(C(N)=O)cc2)cccc1[N+](=O)[O-] | 60.8 µM (inactive) |
| CCOc1ccc(S(=O)(=O)Nc2cccc(C(=O)N3CCN(c4ccc(OC)cc4)CC3)c2)cc1 | > 80 µM (inactive) |
| CCOC(=O)c1ccc(NC(=O)c2nc(S(=O)(=O)Cc3ccccc3)ncc2Cl)cc1 | > 80 µM (inactive) |
| COc1cccc(C2CC(=O)N3CN(c4cccc(Cl)c4C)CSC3=C2C#N)c1OC (centres undefined) | > 80 µM (inactive) |
| CS(=O)(=O)Nc1ccc2c3c(cccc13)CC2 | > 80 µM (inactive) |
| CCCCc1cc(=O)oc2cc(OCc3cc(OC)c(OC)c(OC)c3)c(Cl)cc12 | > 80 µM (inactive) |
| Cc1ccc(-n2nc(C)c3c(C)cc(=O)[nH]c32)cc1 | > 80 µM (inactive) |
| CCCc1nc(SCC(=O)Nc2nc3c(s2)CCCC3)c2ccccc2n1 | > 80 µM (inactive) |
| O=C(Nc1cccnc1Cl)c1cccnc1Cl | > 80 µM (inactive) |
| Cc1cc(Cl)n2nc(C)c(-c3ccc(Cl)cc3)c2n1 | > 80 µM (inactive) |
| COC(=O)[C@]1(Cc2ccccc2)N[C@H](CN(C)C(=O)Nc2ccccc2)[C@@H]2C(=O)N(C)C(=O)[C@@H]21 | > 80 µM (inactive) |
| O=C(O)c1ccccc1C(=O)NCC(O)COCC1CC=CCC1 (centres undefined) | > 80 µM (inactive) |
